The source of these data is PubChem BioAssay AID1996.

Values after ≈ are worked out from the molar mass of the structure shown. Some results are limits rather than exact numbers.

The conditions of this series: buffer; pH 7.4; 200.0 µM.
For orientation: solubility (kinetic) means the concentration staying in solution when a stock, usually in DMSO, is diluted into the medium. `Cc1ccccc1NS(=O)(=O)c1ccc(C(=O)N(C)CC(=O)Nc2ccccc2Br)cc1` returned a solubility (kinetic) of 73 µg/mL (≈ 141 µM).

On to `Cc1c(C)n(Cc2ccccc2)c2ncnc(NCCCN(C)C)c12`, for which the solubility (kinetic) is above 50.6 µg/mL. `C[n+]1cccc(/C=N/Nc2nc(Cl)c(C#N)c(Cl)c2Cl)c1.[Cl-]`: the kinetic solubility is above 56.6 µg/mL. On to `CC(C)(C)N1CC(C(=O)O)CC1=O` (configuration not stated), for which the kinetic solubility was above 27.8 µg/mL. Turning to `CCOC(=O)C1=C(C)NC(=O)CC1c1ccccc1OC` (configuration not stated), the kinetic solubility was 36.8 µg/mL (≈ 127 µM). For `O=C(COC(=O)/C=C/c1ccc([N+](=O)[O-])cc1)NC(=O)NC1CCCCC1` the value was 3.7 µg/mL (≈ 9.86 µM); for `O=C(NC1CCC(O)CC1)c1cccc2cccnc12` (configuration not stated), above 40.5 µg/mL; for `Cc1cccc(C)c1NC(=O)CSc1n[nH]c(=O)n1C1CC1`, above 47.8 µg/mL. For `O=C(CN1C(=O)NC2(CCCCCC2)C1=O)Nc1ccccc1[N+](=O)[O-]` the value was 7.3 µg/mL (≈ 20.3 µM); for `OC[C@H]1O[C@@H](n2cnc3c(Nc4ccccc4)ncnc32)[C@H](O)[C@@H]1O`, above 51.5 µg/mL. Compound `OC1=C(O)c2nc3cc(C(F)(F)F)ccc3nc21` registered a solubility (kinetic) above 38.1 µg/mL.

The compound `CCc1nnc(NC(=O)CS(=O)(=O)Cc2ccccc2)s1` had a kinetic solubility above 48.8 µg/mL. In the case of `O=C(OCc1cnc(Cl)s1)c1cccs1`, the kinetic solubility amounted to 26.5 µg/mL (≈ 102 µM). The compound `Fc1ccc2[nH]c3c(NCc4ccccc4)ncnc3c2c1` displayed a solubility (kinetic) of 3.4 µg/mL (≈ 11.6 µM). Take `CC(C)(C)n1cnc2cc(NC(=O)c3ccccc3)ccc21`: the solubility (kinetic) is above 44 µg/mL. With `CC(=O)c1ccc(NC(=S)N2CCC(Cc3ccccc3)CC2)cc1`, the solubility (kinetic) was 2.8 µg/mL (≈ 7.94 µM).

`CC(C#N)Sc1nnc(-c2ccccc2F)n1C1CC1` (configuration not stated) yielded a solubility (kinetic) above 43.3 µg/mL. `O=C(COC(=O)/C=C/c1cccc(Br)c1)NCc1cccs1` displayed a solubility (kinetic) of 5 µg/mL (≈ 13.1 µM). For `NC(=O)c1ccc(=O)n(Cc2ccc(F)c(F)c2)c1`, the solubility (kinetic) was above 39.6 µg/mL. As for `COc1ccc(CNC2CCN(Cc3ccccc3)CC2)cc1`, the kinetic solubility was above 46.6 µg/mL. `Fc1ccc(-c2nnc(N3CCOCC3)c3ccccc23)cc1F` returned a solubility (kinetic) above 49.1 µg/mL.

The compound `CCC(C(=O)OCC(=O)NCc1ccc2c(c1)OCO2)c1ccccc1` (configuration not stated) had a kinetic solubility of 46 µg/mL (≈ 129 µM). Regarding `Cc1cccc(C(=O)NCCNC(=O)c2ccccn2)c1`, the solubility (kinetic) is above 42.5 µg/mL. `CC[n+]1ccc(C(=O)NCc2ccccc2)cc1.[Cl-]` displayed a kinetic solubility above 41.5 µg/mL.

`CN(C)CCOC1c2ccccc2CCc2ccc3ccccc3c21.O=C(O)C(=O)O` (configuration not stated) displayed a solubility (kinetic) above 63.2 µg/mL. Next, `CCOC(=O)c1cn(CC)c2cc(F)c(F)cc2c1=O`: above 42.2 µg/mL. For `CN(C1(C)CCS(=O)(=O)C1)S(=O)(=O)c1ccc(F)cc1` (configuration not stated) the value was above 48.2 µg/mL. Next, `NC(=O)C1CCCNC1` (configuration not stated): above 19.2 µg/mL; `COc1cccc(-c2cc(-c3cccnc3)nc(N)c2C#N)c1`: 2.3 µg/mL (≈ 7.61 µM); `COc1ccc([N+](=O)[O-])cc1NC(=O)C(C)OC(=O)Cc1ccc(OC)c(OC)c1` (configuration not stated): 31.1 µg/mL (≈ 74.3 µM). As to `COCCn1c(C)cc(C(=O)CN2c3cccc4cccc(c34)S2(=O)=O)c1C`, the solubility (kinetic) was determined as 3.5 µg/mL (≈ 8.78 µM). Against the preceding compound, the solubility kinetic is about 8.9-fold lower. Take `CCN(CC)C(=O)CSc1nc(-c2ccccc2)ccc1C#N`: the kinetic solubility stood at 0.6 µg/mL (≈ 1.84 µM).

With `CC(=O)c1c(-c2ccc(Cl)cc2Cl)noc1C`, the solubility (kinetic) amounted to 17.5 µg/mL (≈ 64.8 µM). Compared with the last compound, the solubility kinetic is about 29-fold higher. For `CC(=O)Nc1ccc(C(=O)N2CCCc3ccccc32)cc1` the value was above 44.2 µg/mL; for `Cc1ccc(C(=O)NCc2ccco2)o1`, above 30.8 µg/mL.

The compound `CC(C)C(=O)N1CCN(c2nc3ccc(Cl)cc3s2)CC1` came in with a kinetic solubility above 48.6 µg/mL. Compound `O=S(=O)(c1cc(Br)c(Cl)s1)N1CCCC1` came in with a solubility (kinetic) of 1 µg/mL (≈ 3.02 µM). In turn, `CNC(=O)COC(=O)c1ccc(Cl)c(S(N)(=O)=O)c1` displayed a solubility (kinetic) above 46 µg/mL. For `COc1cc2c(cc1OC)CN(c1ccc(C(N)=O)cc1[N+](=O)[O-])CC2` the value was 6.4 µg/mL (≈ 17.9 µM); for `CCCCOc1ccc(C(=O)NCCc2ccccc2)cc1`, below 0.6 µg/mL; for `N#CC1=C(N)Oc2cc(N)ccc2C1c1ccccc1F` (configuration not stated), 4.9 µg/mL (≈ 17.4 µM). Compound `O=C(N1CCOCC1)N1CCc2ccccc21` came in with a solubility (kinetic) of 34.8 µg/mL (≈ 150 µM). With `O=S(=O)(Nc1ccccn1)c1cc(Cl)ccc1Cl`, the kinetic solubility was 9.2 µg/mL (≈ 30.3 µM). This solubility kinetic lies about 3.8-fold lower than the previous one. The compound `Cc1cccc(Nc2nnc(SC3CCOC3=O)s2)c1C` (configuration not stated) gave a kinetic solubility above 48.2 µg/mL. Next, `CN(c1ccccc1)c1nccc(=O)[nH]1`: above 30.2 µg/mL. In turn, `CC(=O)N1CCc2c(sc(NC(=O)Cc3ccc(F)cc3)c2C#N)C1` displayed a kinetic solubility below 0.3 µg/mL. The compound `Cc1cccc(C)c1NC(=O)c1cccnc1` showed a solubility (kinetic) of 33.1 µg/mL (≈ 146 µM). For the compound `Cc1ccc(-c2ccc(C#N)c(=O)n2CC(=O)N(C)C)cc1`, the solubility (kinetic) amounted to 3.3 µg/mL (≈ 11.2 µM).

With `CCOC(=O)C1=C(C)C(c2ccc(OC)cc2)NC(=O)N1` (configuration not stated), the solubility (kinetic) is above 43.5 µg/mL.

The compound `O=C(COc1cccc(C(F)(F)F)c1)NCC(c1ccco1)N1CCCC1` (configuration not stated) registered a kinetic solubility of 45.1 µg/mL (≈ 118 µM).

For `CC(C)(C)NC(=O)C(OC(=O)c1cccs1)c1ccccc1` (configuration not stated), the kinetic solubility was determined as 3.3 µg/mL (≈ 10.4 µM). `CCCCC(CC)C(=O)N1CCN(C(=O)c2ccco2)CC1` (configuration not stated) came in with a solubility (kinetic) of 45.4 µg/mL (≈ 148 µM).

Take `CN1CCN(c2ccc(Cl)cc2NC(=O)/C=C/c2cccc(F)c2)CC1`: the kinetic solubility turned out to be 34.4 µg/mL (≈ 92 µM).

As to `Cc1ccc(C)c(-n2c3nc(=O)n(C)c(=O)c-3cc3ccccc32)c1`, the solubility (kinetic) was above 49.7 µg/mL.

On to `COC(=O)c1ccc(CNC(=O)c2coc3ccccc3c2=O)cc1`, for which the solubility (kinetic) stood at 3.7 µg/mL (≈ 11 µM). For `O=C(O)Cn1cc(C(=O)c2ccccc2F)c2ccccc21` the value was 44.5 µg/mL (≈ 150 µM); for `CC(=O)Nc1c(O)c2cccc3c2n(c1=O)CCC3`, 36.5 µg/mL (≈ 141 µM); for `CC(C)(C)C(=O)N(Cc1ccc(Cl)cc1)Cc1cccnc1`, 42.6 µg/mL (≈ 134 µM). `CCN(CC)CC(=O)Nc1scc2c1c(=O)oc1ccccc12` yielded a solubility (kinetic) below 0.4 µg/mL. For the compound `Cc1ccccc1C(=O)N[C@H](C(=O)OCC(=O)NC1CC1)C(C)C`, the solubility (kinetic) was above 49.9 µg/mL. As to `NC(=O)c1ccc(NC(=O)Nc2ccc3c(c2)OCO3)cc1`, the kinetic solubility is 3.8 µg/mL (≈ 12.7 µM). Next, `Cc1ccc(C)c(NC(=O)CCN2CCC(C)CC2)c1`: above 41.2 µg/mL; `COc1ccc2[nH]c(C(=O)NCc3ccc4c(c3)OCO4)cc2c1`: 1.1 µg/mL (≈ 3.39 µM); `CCCCNC(=O)c1cc(S(=O)(=O)N2CCCCC2)oc1C`: 24 µg/mL (≈ 73.1 µM). As to `CN(Cc1ccccc1Cl)C(=O)c1cnccc1C(F)(F)F`, the solubility (kinetic) was above 49.3 µg/mL. For `CCN(c1ccccc1)S(=O)(=O)c1ccc(OC)c(NC(=O)C2CCC2)c1` the value was 23 µg/mL (≈ 59.2 µM); for `COc1cccc(NC(=O)c2cc3ccccc3cc2OC)c1`, 2.8 µg/mL (≈ 9.11 µM); for `CCCC(=O)Nc1sc2c(c1C(=O)OCC)CC(C)(C)OC2`, 4.6 µg/mL (≈ 14.1 µM). For `Cl.N=C(c1ccc([N+](=O)[O-])cc1)N1CCCCCC1` the value was above 42.6 µg/mL.

Regarding `CSc1ccc(CN(C)C(=O)c2cc3ccccc3o2)cc1`, the solubility (kinetic) was determined as 10.3 µg/mL (≈ 33.1 µM). Regarding `CC(C)CN(C(=O)c1ccco1)c1nc2ccccc2s1`, the kinetic solubility came out at 2.2 µg/mL (≈ 7.32 µM). `Cn1c(=O)n(CC(=O)[O-])c(=O)c2c1nc1n2CCS1` yielded a kinetic solubility of 40.8 µg/mL. `CCOC(=O)CCSc1n[nH]c(=S)s1` returned a solubility (kinetic) above 37.6 µg/mL.

`CCN(CC)S(=O)(=O)c1ccc(OC)c(NC(=O)CSCc2c(C)noc2C)c1` registered a kinetic solubility above 66.2 µg/mL.

For `Cc1ccc(OCC(=O)NCc2ccco2)c([N+](=O)[O-])n1`, the kinetic solubility was determined as 37.3 µg/mL (≈ 128 µM). As for `Cc1c(F)cccc1NC(=O)c1ccc2c(c1)CCN2S(C)(=O)=O`, the solubility (kinetic) amounted to 4.4 µg/mL (≈ 12.6 µM). In the case of `COc1ccccc1CNC(=O)CCCNC(=O)c1ccc(Cl)cc1`, the solubility (kinetic) worked out at 20.6 µg/mL (≈ 57.1 µM). This solubility kinetic is about 4.7-fold higher than that of the compound before. In the case of `CC(=O)c1c(C)[nH]c(C(=O)OCC(=O)N(Cc2ccccc2)C(C)(C)C)c1C`, the kinetic solubility came to 12 µg/mL (≈ 31.2 µM). For `O=C(CSc1ccc(Cl)cc1)NC(=O)c1ccccc1`, the solubility (kinetic) is 6.4 µg/mL (≈ 20.9 µM). Turning to `CCN(Cc1ccccc1)C(=O)c1ccc(Cl)cc1[N+](=O)[O-]`, the solubility (kinetic) came out at 44.5 µg/mL (≈ 140 µM). In turn, `COc1ccc(Cl)cc1NC(=O)COC(=O)c1ccc(Br)o1` came in with a solubility (kinetic) of 2.6 µg/mL (≈ 6.69 µM). This solubility kinetic lies about 17-fold lower than the previous one. The compound `O=C(CC1CCC1)Nc1cccc2c([N+](=O)[O-])cccc12` came in with a kinetic solubility of 5.8 µg/mL (≈ 20.4 µM).

`COc1cc(NC(=O)C2CC2)c(OC)cc1NC(=O)c1ccco1` showed a kinetic solubility of 3.6 µg/mL (≈ 10.9 µM). `Nc1c(C(=O)OCC(=O)Nc2cccc([N+](=O)[O-])c2)[nH]c(=O)[nH]c1=O` yielded a kinetic solubility of 51.5 µg/mL (≈ 147 µM). In the case of `COc1ccc(CCNc2c([N+](=O)[O-])ncn2C)cc1OC`, the solubility (kinetic) was found to be 45.8 µg/mL (≈ 150 µM). `N[C@H](CSCc1ccccc1)C(=O)Nc1ccc([N+](=O)[O-])cc1` had a solubility (kinetic) of 36.3 µg/mL (≈ 110 µM). The solubility kinetic values of the last two compounds are within 1.5-fold of each other. Next, `COc1ccccc1NS(=O)(=O)c1ccc(C)c(C(=O)Nc2cc(C)on2)c1`: 22.4 µg/mL (≈ 55.8 µM); `CCOc1ccccc1C(=O)Nc1cc(C)ccc1NC(=O)c1ccco1`: 43.4 µg/mL (≈ 119 µM); `O=C(NCCc1ccccc1)C1CCC(=O)N1CCc1ccccc1` (configuration not stated): 46.2 µg/mL (≈ 137 µM). For `Cc1ccc(NC(=O)c2cc(CC(C)C)nc3ccccc23)cc1`, the solubility (kinetic) is 0.6 µg/mL (≈ 1.88 µM). Next, `Cc1nc(N)nc(COc2ccccc2)n1`: above 32.4 µg/mL. In turn, `CCN1/C(=C\C(=S)Nc2ccccc2)Sc2ccccc21` gave a solubility (kinetic) of 20.7 µg/mL (≈ 66.2 µM). `O=C1CSCC(=O)N1Cc1ccc(Cl)cc1Cl` gave a kinetic solubility of 38.2 µg/mL (≈ 132 µM). Consider `COc1ccc(CNC(=O)CCSCc2cccc(F)c2)cc1`, for which the solubility (kinetic) is above 50 µg/mL. Next, `Cc1c(C(=O)N2CCCc3ccccc32)oc2ccccc12`: 5.7 µg/mL (≈ 19.6 µM). Consider `COc1cc(NC(=O)CCc2c(C)noc2C)c(Cl)cc1C(=O)O`, for which the kinetic solubility was above 52.9 µg/mL. As to `O=C1ON=C(c2ccccc2)/C1=C/c1ccc(O)c(O)c1`, the kinetic solubility is above 42.2 µg/mL. Consider `COc1ccc(-n2c(C)c(C)c3c(NCCCO)ncnc32)cc1`, for which the solubility (kinetic) is above 49 µg/mL. Next, `O=C(Nc1ccccc1)Nc1ccc(C(F)(F)F)cn1`: 0.2 µg/mL (≈ 0.711 µM); `COc1ccc2nccnc2c1[N+](=O)[O-]`: above 30.8 µg/mL; `CC(C)(CNc1ccc([N+](=O)[O-])cc1C#N)N1CCOCC1`: 8.1 µg/mL (≈ 26.6 µM). With `Cc1cccc(NC(=O)COC(=O)C2COc3ccccc3O2)c1C` (configuration not stated), the solubility (kinetic) was above 51.2 µg/mL.
